How the values were obtained:
lymphocytes [1] = experiment: Ex vivo treatment of human blood, TMRE mitochondrial membrane potential of lymphocytes by flow cytometry; format: cell-based; settings: whole blood treated ex vivo with 50 μM before staining with SYTO 13 and TMRE
Description: Furthermore, one fraction of blood was treated ex vivo with carbonyl cyanide 3-chlorophenylhydrazone (CCCP), a toxic chemical that is known to disrupt mitochondrial membrane potential.
Blood from a finger prick (approximately 150 μl) was collected into a tube containing 10 μl heparin solution (500 Units/ml; approximately 6% dilution). One 5 μl aliquot of heparinized whole blood was added to a tube with 1 ml Hank's Balance Salt Solution containing SYTO®13 at 5 nM, TMRE at 100 nM, and 20,720 counting beads per ml (beads from Molecular Probes, cat. no. C36950) (i.e., blood diluted another 200-fold). A second fraction of blood was treated with 50 μM CCCP before being stained with SYTO® and TMRE as above. After staining for 30 minutes at room temperature, the samples were analyzed with a FACSCalibur flow cytometer providing 488 nm excitation.
Acquisition was triggered with a FL1 threshold that was set sufficiently high so as to exclude platelets, mature erythrocytes and reticulocytes, thereby restricting acquisition to nucleated cells. By expressing light scatter in linear scale, it was possible to focus on particular subpopulations, for instance lymphocytes that are low in forward and side scatter relative to other nucleated cells (FIG. 4A). […]

reticulocytes = experiment: Radioprotectant evaluation using mouse blood: reticulocytes; format: in vivo, C57BL/6J mice; settings: 400 mg/kg ip, 30 minutes prior to 1 Gy gamma rays; blood collected 46±3 hrs post-irradiation
Description: In this experiment, one group of five C57BL/6J mice was sham irradiated, whereas two other groups of five mice were exposed to 1 Gy gamma rays. […] 5 μl of whole blood were added to tubes containing 1 ml HBSS with SYTO®13 at 10 nM, TMRE at 100 nM, and 20,720 counting beads per ml (beads from Molecular Probes, cat. no. C36950). After 30 minutes at room temperature, the samples were moved to 4° C. and analyzed with a FACSCalibur flow cytometer providing 488 nm excitation. In the first round of analysis, a forward scatter threshold was used to trigger data acquisition. With the trigger channel set sufficiently low, platelets as well as all blood cell types were acquired. Similar to thiazole orange, SYTO®13 dye in conjunction with light scatter signals was capable of resolving mature erythrocytes, reticulocytes, nucleated cells, platelets, and reticulated platelets. […] Reticulocytes can thus be quantified as a percentage of all erythrocytes, and reticulated platelets can be quantified as a percentage of all platelets. Furthermore, with the incorporation of the TMRE dye, it was possible to enumerate the percentage of reticulocytes that express dysfunctional mitochondrial membranes.

lymphocytes [2] = experiment: Radioprotectant evaluation using mouse blood: lymphocytes; format: in vivo, C57BL/6J mice; settings: 400 mg/kg ip, 30 minutes prior to 1 Gy gamma rays; blood collected 46±3 hrs post-irradiation
Description: In this experiment, one group of five C57BL/6J mice was sham irradiated, whereas two other groups of five mice were exposed to 1 Gy gamma rays. While one group of irradiated mice was injected with vehicle, the other was injected with the radioprotectant agent amifostine (400 mg/kg injected ip, 30 minutes prior to irradiation). […] 5 μl of whole blood were added to tubes containing 1 ml HBSS with SYTO®13 at 10 nM, TMRE at 100 nM, and 20,720 counting beads per ml (beads from Molecular Probes, cat. no. C36950). After 30 minutes at room temperature, the samples were moved to 4° C. and analyzed with a FACSCalibur flow cytometer providing 488 nm excitation. […] Furthermore, with the incorporation of the TMRE dye, it was possible to enumerate the percentage of lymphocytes that express dysfunctional mitochondrial membranes.

Row | Compound | TMRE-associated fluorescence of lymphocytes / incidence of TMRE-negative lymphocytes (lymphocytes [1]) | TMRE-associated fluorescence of lymphocytes / incidence of TMRE-negative lymphocytes (lymphocytes [1]; listed as carbonyl cyanide 3-chlorophenylhydrazone) | reticulocyte effects of 1 Gy irradiation (decrease of reticulocytes, increase in percentage of reticulocytes with dysfunctional mitochondria) (reticulocytes) | protection against decrease of percentage of lymphocytes by 1 Gy irradiation (lymphocytes [2])
1 | N#CC(C#N)=NNc1cccc(Cl)c1 [CCCP, carbonyl cyanide 3-chlorophenylhydrazone] | increased incidence of events falling into this region | low TMRE-associated fluorescence | – | –
2 | NCCCNCCSP(=O)(O)O [amifostine] | – | – | ameliorated | no appreciable protection

Source: patent US8535226B2, “Method for measuring in vivo hematotoxicity with an emphasis on radiation exposure assessment” (Litron Laboratories, Ltd., priority 2007, dated 2013)
